Reference: PMC7181131, “N-Pyrazinoyl Substituted Amino Acids as Potential Antimycobacterial Agents—the Synthesis and Biological Evaluation of Enantiomers” (Molecules, 2020)
In brackets after ≈: the same amount, converted by molar mass. Read-outs that look alike come from different tables or passages of the source.

How the values were obtained:
[1] = system: Mycobacterium aurum DSM 43999 (ATCC 23366); experiment: Microplate Alamar Blue Assay (MABA) microdilution, M. aurum; assay type: cell-based; conditions: Mycolicibacterium aurum
[2] = system: Trichophyton interdigitale CCM 8377 (ATCC 9533); experiment: Antifungal microdilution broth method, TI; assay type: cell-based; conditions: 48 h, read-out: MIC TI
[3] = system: M. smegmatis DSM 43465 (ATCC 607); experiment: Microplate Alamar Blue Assay (MABA) microdilution, M. smegmatis; assay type: cell-based, Mycobacterium smegmatis; conditions: Mycolicibacterium smegmatis
[4] = system: Candida parapsilosis CCM 8260 (ATCC 22019); experiment: Antifungal microdilution broth method, CP; assay type: cell-based; conditions: Lodderomyces parapsilosis, 24 h, read-out: MIC CP
[5] = system: Aspergillus fumigatus ATCC 204305; experiment: Antifungal microdilution broth method, AF; assay type: cell-based; conditions: ATCC204305, 48 h, read-out: MIC AF
[6] = system: Staphylococcus epidermidis CCM 4418 (ATCC 12228); experiment: Antibacterial microdilution broth method, SE; assay type: cell-based; conditions: 24 h, read-out: MIC SE
[7] = system: Candida krusei CCM 8271 (ATCC 6258); experiment: Antifungal microdilution broth method, CK; assay type: cell-based; conditions: Pichia kudriavzevii, 24 h, read-out: MIC CK
[8] = system: Lichtheimia corymbifera CCM 8077; experiment: Antifungal microdilution broth method, LC; assay type: cell-based; conditions: CCM8077, 48 h, read-out: MIC LC
[9] = system: Aspergillus flavus CCM 8363; experiment: Antifungal microdilution broth method, AFla; assay type: cell-based; conditions: CCM8363, read after 48 h (filamentous fungi), read-out: MIC AFla
Protocol: 6. In vitro antifungal activity screening
Antifungal activity evaluation was performed using a microdilution broth method according to EUCAST instructions (The European Committee on Antimicrobial Susceptibility Testing) with slight modifications. Eight fungal strains (four yeast and four mould strains) were used for antifungal […]
and Trichophyton interdigitale CCM 8377 (ATCC 9533). Tested strains were purchased from the Czech Collection of Microorganisms (CCM, Brno, Czech Republic) or from the American Type Collection Cultures (ATCC, Manassas, VA, USA). Tested compounds were dissolved in DMSO and diluted in a twofold manner with RPMI 1640 medium, with glutamine and 2% glucose, buffered to pH 7.0 with MOPS (3-morpholinopropane-1-sulfonic acid). The final concentration of DMSO in the testing […]
Static incubation was performed in the dark and in humid atmosphere, at 35±2 °C, for 24 and 48 h (72 and 120 h for Trichophyton interdigitale respectively). Positive controls consisted of test microbe solely, while negative controls consisted of cultivation medium and DMSO. Visual inspection and metabolic activity indicator, Alamar Blue (ThermoFisher Scientific), were used for MIC endpoint evaluation. The internal quality standards, amphotericin B (Sigma-Aldrich) and voriconazole (Toronto research Chemicals, CA) were involved in assays (for MIC of standards see Table S5). All experiments were conducted in duplicates.
For the results to be valid, the difference in MIC for one compound determined from two parallel measurements must not be greater than one step on the dilution scale.

[10] = system: Klebsiella pneumoniae CCM 4415 (ATCC 10031); experiment: Antibacterial microdilution broth method, KP; conditions: read after 24 h of incubation
[11] = system: Mtb H37Ra ITM-M006710 (ATCC 9431); experiment: Microplate Alamar Blue Assay (MABA) microdilution, Mtb H37Ra; assay type: cell-based, Mycobacterium tuberculosis; conditions: Mycobacterium tuberculosis
[12] = system: Candida albicans CCM 8320 (ATCC 24433); experiment: Antifungal microdilution broth method, CA; assay type: cell-based; conditions: 24 h, read-out: MIC CA
[13] = system: Candida tropicalis CCM 8264 (ATCC 750); experiment: Antifungal microdilution broth method, CT; assay type: cell-based; conditions: 24 h, read-out: MIC CT
[14] = pH 6, read-out: MIC M. aurum µg/mL
[15] = pH 6, read-out: MIC M. smegmatis µg/mL
[16] = pH 6.6, read-out: MIC M. smegmatis
[17] = pH 6.6, read-out: MIC Mtb H37Ra
[18] = pH 6, calculated from µg/mL, read-out: MIC Mtb H37Ra

| SMILES | MIC [1, 14] | MIC ([1]; pH 6.6, read-out: MIC M. aurum) | MIC [2] | MIC [3, 15] | MIC [3, 16] | MIC [4] | MIC [5] | MIC [6] | MIC [7] | MIC [8] | MIC [9] | MIC KP [10] | MIC ([11]; pH 6) | MIC ([11]; pH 6, read-out: MIC Mtb H37Ra) | MIC [11, 17] | MIC [11, 18] | MIC [12] | MIC [13] |
| --- | --- | --- | --- | --- | --- | --- | --- | --- | --- | --- | --- | --- | --- | --- | --- | --- | --- | --- |
| COC(=O)[C@H](NC(=O)c1cnccn1)[C@H](C)O [PC-D-Thr-Me, methyl (pyrazine-2-carbonyl)-D-threoninate] | ≥ 500 µg/mL | ≥ 500 µg/mL | > 500 µM | ≥ 500 µg/mL | ≥ 500 µg/mL | > 500 µM | > 500 µM | > 500 µM | > 500 µM | > 500 µM | > 500 µM | > 500 µM | ≥ 500 µg/mL | ≥ 500 µg/mL | ≥ 500 µg/mL | ≥ 2090 µM | > 500 µM | > 500 µM |
| CCOC(=O)[C@@H](Cc1c[nH]c2ccccc12)NC(=O)c1cnccn1 [PC-D-Trp-Et, ethyl (pyrazine-2-carbonyl)-D-tryptophanate] | 62.5 µg/mL (≈ 185 µM) | 250 µg/mL (≈ 739 µM) | > 500 µM | 250 µg/mL (≈ 739 µM) | 250 µg/mL (≈ 739 µM) | > 500 µM | > 500 µM | > 500 µM | > 500 µM | > 500 µM | > 500 µM | > 500 µM | 62.5 µg/mL | 62.5 µg/mL | 125 µg/mL | 185 µM | > 500 µM | > 500 µM |
| COC(=O)[C@@H](Cc1ccc(O)cc1)NC(=O)c1cnccn1 [PC-D-Tyr-Me, methyl (pyrazine-2-carbonyl)-D-tyrosinate] | ≥ 250 µg/mL | ≥ 500 µg/mL | > 500 µM | ≥ 500 µg/mL | ≥ 500 µg/mL | > 500 µM | > 500 µM | > 500 µM | > 500 µM | > 500 µM | > 500 µM | > 500 µM | 125 µg/mL | 125 µg/mL | ≥ 500 µg/mL | 415 µM | > 500 µM | > 500 µM |
| COC(=O)[C@H](NC(=O)c1cnccn1)C(C)C [PC-D-Val-Me, methyl (pyrazine-2-carbonyl)-D-valinate] | ≥ 125 µg/mL | ≥ 500 µg/mL | > 500 µM | ≥ 125 µg/mL | ≥ 500 µg/mL | > 500 µM | > 500 µM | > 500 µM | > 500 µM | > 500 µM | > 500 µM | > 500 µM | ≥ 125 µg/mL | ≥ 125 µg/mL | ≥ 500 µg/mL | ≥ 527 µM | > 500 µM | > 500 µM |
| CCOC(=O)CNC(=O)c1cnccn1 [PC-Gly-Et, ethyl (pyrazine-2-carbonyl)glycinate] | ≥ 125 µg/mL | ≥ 500 µg/mL | > 500 µM | ≥ 125 µg/mL | 250 µg/mL (≈ 1200 µM) | > 500 µM | > 500 µM | > 500 µM | > 500 µM | > 500 µM | > 500 µM | > 500 µM | ≥ 125 µg/mL | ≥ 125 µg/mL | ≥ 500 µg/mL | ≥ 598 µM | > 500 µM | > 500 µM |
| CCOC(=O)C[C@H](NC(=O)c1cnccn1)C(=O)OCC [PC-L-Asp-diEt, diethyl (pyrazine-2-carbonyl)-L-aspartate] | ≥ 125 µg/mL | ≥ 500 µg/mL | > 500 µM | ≥ 125 µg/mL | ≥ 500 µg/mL | > 500 µM | > 500 µM | 500 µM (≈ 148 µg/mL) | > 500 µM | > 500 µM | > 500 µM | > 500 µM | ≥ 125 µg/mL | ≥ 125 µg/mL | ≥ 500 µg/mL | ≥ 423 µM | > 500 µM | > 500 µM |
| CCOC(=O)CC[C@H](NC(=O)c1cnccn1)C(=O)OCC [PC-L-Glu-diEt, diethyl (pyrazine-2-carbonyl)-L-glutamate] | ≥ 500 µg/mL | ≥ 500 µg/mL | > 500 µM | ≥ 500 µg/mL | ≥ 500 µg/mL | > 500 µM | > 500 µM | > 500 µM | > 500 µM | > 500 µM | > 500 µM | > 500 µM | 31.2 µg/mL | 31.2 µg/mL | ≥ 500 µg/mL | 101 µM | > 500 µM | > 500 µM |
| O=C(N[C@@H](COCc1ccccc1)C(=O)O)c1cnccn1 [PC-L-OBn-Ser, O-benzyl-N-(pyrazine-2-carbonyl)-L-serine] | 62.5 µg/mL (≈ 207 µM) | ≥ 500 µg/mL | > 500 µM | 250 µg/mL (≈ 830 µM) | ≥ 500 µg/mL | > 500 µM | > 500 µM | > 500 µM | > 500 µM | > 500 µM | > 500 µM | > 500 µM | ≥ 500 µg/mL | ≥ 500 µg/mL | ≥ 500 µg/mL | ≥ 1660 µM | > 500 µM | > 500 µM |
| COC(=O)[C@H](COC(C)(C)C)NC(=O)c1cnccn1 [PC-L-OtBu-Ser-Me, methyl O-(tert-butyl)-N-(pyrazine-2-carbonyl)-L-serinate] | 62.5 µg/mL (≈ 222 µM) | ≥ 500 µg/mL | > 500 µM | 250 µg/mL (≈ 889 µM) | ≥ 500 µg/mL | > 500 µM | > 500 µM | > 500 µM | > 500 µM | > 500 µM | > 500 µM | > 500 µM | ≥ 500 µg/mL | ≥ 500 µg/mL | ≥ 500 µg/mL | ≥ 1780 µM | > 500 µM | > 500 µM |
